This is an account of results in PMC6199744, “Development of Chemical Proteomics for the Folateome and Analysis of the Kinetoplastid Folateome” (ACS Infectious Diseases, 2018).

Holding throughout (type): binding
Test [1] concerns the target T1, HeLa cell extract proteins (Homo sapiens, UniProt P31943).
T1 construct: endogenous in cells; host or cells: HeLa cell extract
T1 sequence (P31943 1-449): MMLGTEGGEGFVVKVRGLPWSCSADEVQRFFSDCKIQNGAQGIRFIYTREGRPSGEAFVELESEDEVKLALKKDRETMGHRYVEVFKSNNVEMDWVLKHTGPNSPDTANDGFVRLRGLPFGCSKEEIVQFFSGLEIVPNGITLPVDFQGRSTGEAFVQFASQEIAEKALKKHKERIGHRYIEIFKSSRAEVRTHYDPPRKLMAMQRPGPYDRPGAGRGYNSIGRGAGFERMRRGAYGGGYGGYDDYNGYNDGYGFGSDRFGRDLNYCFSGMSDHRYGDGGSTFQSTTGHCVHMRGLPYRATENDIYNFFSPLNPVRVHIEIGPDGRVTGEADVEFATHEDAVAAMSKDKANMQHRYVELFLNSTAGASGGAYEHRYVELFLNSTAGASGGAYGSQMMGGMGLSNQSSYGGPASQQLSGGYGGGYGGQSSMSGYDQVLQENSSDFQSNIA

In test [2] the target is T2, HeLa cell extract proteins (Homo sapiens, UniProt P14625).
T2 construct: endogenous in cells; host or cells: HeLa cell extract
T2 sequence (P14625 22-803): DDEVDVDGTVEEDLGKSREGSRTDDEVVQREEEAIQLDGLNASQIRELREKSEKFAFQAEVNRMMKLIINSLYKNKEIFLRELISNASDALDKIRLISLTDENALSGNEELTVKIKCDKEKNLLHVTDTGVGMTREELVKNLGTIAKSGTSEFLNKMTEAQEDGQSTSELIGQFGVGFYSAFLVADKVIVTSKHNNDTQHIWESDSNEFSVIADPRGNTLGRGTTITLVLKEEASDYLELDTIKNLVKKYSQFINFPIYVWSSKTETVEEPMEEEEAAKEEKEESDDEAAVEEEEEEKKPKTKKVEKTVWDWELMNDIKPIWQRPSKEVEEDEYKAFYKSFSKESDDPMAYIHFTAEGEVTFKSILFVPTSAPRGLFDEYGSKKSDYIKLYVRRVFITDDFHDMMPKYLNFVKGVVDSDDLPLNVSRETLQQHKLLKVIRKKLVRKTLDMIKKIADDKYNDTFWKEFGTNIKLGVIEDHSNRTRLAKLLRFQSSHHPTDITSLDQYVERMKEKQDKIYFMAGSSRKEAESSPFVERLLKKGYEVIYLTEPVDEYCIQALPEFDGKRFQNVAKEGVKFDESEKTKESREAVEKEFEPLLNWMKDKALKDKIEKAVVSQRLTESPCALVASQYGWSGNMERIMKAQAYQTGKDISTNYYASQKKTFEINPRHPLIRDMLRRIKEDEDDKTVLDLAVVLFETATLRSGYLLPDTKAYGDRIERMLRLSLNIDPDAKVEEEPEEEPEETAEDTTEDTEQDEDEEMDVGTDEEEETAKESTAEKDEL

Test [3] addresses T3, HeLa cell extract proteins (Homo sapiens, UniProt P26447).
T3 construct: endogenous in cells; host or cells: HeLa cell extract

Test [4] addresses T4, HeLa cell extract proteins (Homo sapiens, UniProt P39656).
T4 construct: endogenous in cells; host or cells: HeLa cell extract
T4 sequence (P39656 43-456): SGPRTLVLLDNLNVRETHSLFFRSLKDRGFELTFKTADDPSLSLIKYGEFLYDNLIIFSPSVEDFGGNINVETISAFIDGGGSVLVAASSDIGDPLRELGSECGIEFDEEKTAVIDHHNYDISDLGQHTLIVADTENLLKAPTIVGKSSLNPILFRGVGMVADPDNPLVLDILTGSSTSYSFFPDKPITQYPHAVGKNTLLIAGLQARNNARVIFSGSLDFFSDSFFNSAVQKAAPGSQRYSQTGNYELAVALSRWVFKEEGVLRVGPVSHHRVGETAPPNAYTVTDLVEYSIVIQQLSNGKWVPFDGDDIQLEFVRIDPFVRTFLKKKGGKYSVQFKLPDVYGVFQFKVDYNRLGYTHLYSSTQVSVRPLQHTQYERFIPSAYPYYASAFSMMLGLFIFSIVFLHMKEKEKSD

For test [5], the target named is T5, HeLa cell extract proteins (Homo sapiens, UniProt Q71U36).
T5 construct: endogenous in cells; host or cells: HeLa cell extract
T5 sequence (Q71U36 whole entry): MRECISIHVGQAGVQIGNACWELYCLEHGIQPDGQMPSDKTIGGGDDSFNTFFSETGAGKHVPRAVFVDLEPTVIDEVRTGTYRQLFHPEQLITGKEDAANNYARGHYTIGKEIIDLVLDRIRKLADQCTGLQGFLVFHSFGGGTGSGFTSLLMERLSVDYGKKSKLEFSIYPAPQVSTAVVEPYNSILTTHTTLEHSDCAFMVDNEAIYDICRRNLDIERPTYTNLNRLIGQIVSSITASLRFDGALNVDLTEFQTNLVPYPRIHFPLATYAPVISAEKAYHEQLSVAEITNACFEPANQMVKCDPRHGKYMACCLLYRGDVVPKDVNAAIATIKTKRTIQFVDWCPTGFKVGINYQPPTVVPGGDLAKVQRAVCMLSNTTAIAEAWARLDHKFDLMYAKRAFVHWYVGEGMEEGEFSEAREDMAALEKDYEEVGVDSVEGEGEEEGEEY

Test [6] deals with T6, HeLa cell extract proteins (Homo sapiens, UniProt Q93100).
T6 construct: endogenous in cells; host or cells: HeLa cell extract
T6 sequence (Q93100 1-1093): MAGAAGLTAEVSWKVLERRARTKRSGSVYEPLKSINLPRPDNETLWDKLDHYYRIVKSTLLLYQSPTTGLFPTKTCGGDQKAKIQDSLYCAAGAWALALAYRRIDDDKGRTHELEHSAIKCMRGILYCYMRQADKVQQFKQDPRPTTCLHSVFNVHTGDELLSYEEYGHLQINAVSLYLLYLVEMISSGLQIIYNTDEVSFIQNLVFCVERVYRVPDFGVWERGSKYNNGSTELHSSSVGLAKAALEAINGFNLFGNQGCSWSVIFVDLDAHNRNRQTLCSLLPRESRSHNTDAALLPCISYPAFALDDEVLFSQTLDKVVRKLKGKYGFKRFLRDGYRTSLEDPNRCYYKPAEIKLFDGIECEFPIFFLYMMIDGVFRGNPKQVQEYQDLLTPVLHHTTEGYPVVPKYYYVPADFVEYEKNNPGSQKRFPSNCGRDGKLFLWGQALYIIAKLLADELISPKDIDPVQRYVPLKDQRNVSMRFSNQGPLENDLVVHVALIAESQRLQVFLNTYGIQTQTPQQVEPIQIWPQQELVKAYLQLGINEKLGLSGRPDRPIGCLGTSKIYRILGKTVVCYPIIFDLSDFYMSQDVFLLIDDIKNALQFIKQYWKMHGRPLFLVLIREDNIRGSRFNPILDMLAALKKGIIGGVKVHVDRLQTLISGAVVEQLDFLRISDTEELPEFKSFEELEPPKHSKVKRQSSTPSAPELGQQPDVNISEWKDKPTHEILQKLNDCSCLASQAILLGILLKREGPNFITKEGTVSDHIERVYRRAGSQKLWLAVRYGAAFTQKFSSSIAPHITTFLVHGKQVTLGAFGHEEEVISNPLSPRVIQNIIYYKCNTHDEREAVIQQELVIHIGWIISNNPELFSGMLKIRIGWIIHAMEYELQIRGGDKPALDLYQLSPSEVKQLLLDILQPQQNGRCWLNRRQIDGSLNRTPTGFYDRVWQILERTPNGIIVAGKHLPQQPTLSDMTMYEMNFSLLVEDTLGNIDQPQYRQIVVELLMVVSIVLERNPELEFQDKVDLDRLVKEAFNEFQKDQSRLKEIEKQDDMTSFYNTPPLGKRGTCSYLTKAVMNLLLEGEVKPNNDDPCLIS

In test [7] the target is T7, HeLa cell extract proteins (Homo sapiens, UniProt Q07021).
T7 construct: endogenous in cells; host or cells: HeLa cell extract
T7 sequence (Q07021 74-282): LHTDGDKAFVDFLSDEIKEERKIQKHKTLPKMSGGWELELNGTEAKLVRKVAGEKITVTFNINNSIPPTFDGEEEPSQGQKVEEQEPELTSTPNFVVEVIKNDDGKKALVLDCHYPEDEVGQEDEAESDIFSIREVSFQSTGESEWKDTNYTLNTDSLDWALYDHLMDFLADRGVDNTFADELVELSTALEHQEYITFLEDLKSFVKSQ

Structures are written as SMILES. Where two headings read alike, the source gives them in different places.

T3 sequence (P26447 whole entry): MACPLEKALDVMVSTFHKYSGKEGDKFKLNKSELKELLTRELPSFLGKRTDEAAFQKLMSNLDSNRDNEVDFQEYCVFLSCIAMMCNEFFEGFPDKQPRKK

For the compound `CCCCCCOc1cccc(Cc2cnc(N)nc2N)c1` [compound 2], the “fold changes relative to vehicle control” value came out at 1.02 in test [1] (HeLa, protein HNRNPH1); 2.51 fold in test [2] (HeLa, protein HSP90B1 (ENDOPLASMIN PRECURSOR.)); 1.43 in test [3] (protein S100A4, HeLa); 1.1 in test [4] (captured protein DDOST, HeLa); 0.92 in test [5] (HeLa, protein TUBA1A); 1.09 in test [6] (captured protein PHKB, HeLa). Further, the “fold changes relative to vehicle control” value in test [7] (protein C1QBP, HeLa) is given as 1.27.

On to `NCCOCCOCC(=O)Nc1nc2ncc(CNc3ccc(C(=O)NC(CCC(=O)O)C(=O)O)cc3)nc2c(=O)[nH]1` (stereo not shown) [compound 6], for which the “fold changes relative to vehicle control” value in test [1] (HeLa, captured protein HNRNPH1) was found to be 0.84; in test [2] (HeLa, protein HSP90B1), 1.18; in test [3] (protein S100A4, HeLa), 1.18; in test [4] (HeLa, captured protein DDOST), 0.95; in test [5] (HeLa, protein TUBA1A), 0.97; in test [6] (HeLa, protein PHKB), 1.04. Besides, in test [7] (HeLa, protein C1QBP), the “fold changes relative to vehicle control” value was found to be 0.92.

For the compound `CCCCCCOc1ccc(Cc2cnc(N)nc2N)cc1` [compound 1], the “fold changes relative to vehicle control” value in test [1] (HeLa, protein HNRNPH1) is 0.96; in test [2] (HeLa, protein HSP90B1 (E[…].)), 1.35 fold; in test [3] (protein S100A4, HeLa), 0.83; in test [4] (captured protein DDOST, HeLa), 0.81; in test [5] (HeLa, protein TUBA1A), 0.95; in test [6] (captured protein PHKB, HeLa) it was 0.86. For the same compound, the “fold changes relative to vehicle control” value in test [7] (protein C1QBP, HeLa) came out at 1.12.

For `Nc1nc2c(c(=O)[nH]1)N(C=O)C(CNc1ccc(C(=O)N[C@@H](CCC(=O)O)C(=O)O)cc1)CN2` (stereo partly shown) [LEU, leucovorin], the “fold changes relative to vehicle control” value in test [1] (HeLa, captured protein HNRNPH1) is recorded as 0.96; in test [2] (HeLa, protein HSP90B1), 1.04; in test [3] (protein S100A4, HeLa), 0.95; in test [4] (HeLa, captured protein DDOST), 0.8; in test [5] (HeLa, protein TUBA1A) it was 0.95; in test [6] (HeLa, protein PHKB) it was 1. Further, the “fold changes relative to vehicle control” value in test [7] (HeLa, protein C1QBP) was 0.85.

For `NCCCNc1ccc(C(=O)NC(CCC(=O)O)C(=O)O)cc1` (stereo not shown) [compound 7], the “fold changes relative to vehicle control” value in test [1] (HeLa, captured protein HNRNPH1) is listed as 0.92; in test [2] (HeLa, protein HSP90B1), 0.89; in test [3] (protein S100A4, HeLa) it was 1.03; in test [4] (HeLa, captured protein DDOST) it was 1.07; in test [5] (HeLa, protein TUBA1A), 1; in test [6] (HeLa, protein PHKB), 1.08. For the same compound, in test [7] (HeLa, protein C1QBP), the “fold changes relative to vehicle control” value is listed as 0.78.

Consider `Nc1nc2[nH]cc(CCc3ccc(C(=O)N[C@@H](CCC(=O)O)C(=O)O)cc3)c2c(=O)[nH]1` [PTX, pemetrexed], for which the “fold changes relative to vehicle control” value in test [1] came to 0.86; in test [2] it was 1.14; in test [3], 0.99; in test [4], 0.85; in test [5], 0.91; in test [6], 1.02. In addition, the “fold changes relative to vehicle control” value in test [7] was determined as 0.92.

As for `Nc1nc2cccc(-c3ccccc3)c2n1Cc1ccc(Cl)c(Cl)c1` [compound 3], the “fold changes relative to vehicle control” value is given as 1 in test [1] (HeLa, protein HNRNPH1); 0.91 fold in test [2] (HeLa, protein HSP90B1 (E[…].)); 1.15 in test [3] (protein S100A4, HeLa); 1.05 in test [4] (captured protein DDOST, HeLa); 1.06 in test [5] (HeLa, protein TUBA1A); 1.19 in test [6] (captured protein PHKB, HeLa). In addition, in test [7] (protein C1QBP, HeLa), the “fold changes relative to vehicle control” value turned out to be 1.
